Test results from patent US20260207794A1, “NOVEL COMPOUNDS FOR DIAGNOSIS” (AC IMMUNE SA, priority 2022, published 2026).
pKi: −log10 of the molar value. Structures can show the parent of a compound that is named as a salt.

Target: T1, PD brain-derived alpha-synuclein aggregates (Homo sapiens, UniProt P37840)
T1 construct: from tissue; host or cells: human PD donor brain, sarkosyl-insoluble pellet
Assay: Micro-radiobinding competition assay
Type: binding
Conditions: for Competition at 100 nM (%): 100 nM example compound; for Competition at 100 nM (%) / Competition at 1 μM (%): competition over [3H]-alpha-syn reference ligand (20 nM or 30 nM), human PD brain-derived a-syn aggregates; for Competition at 1 μM (%): 1 μM example compound; for pKi: mean of two independent experiments, PD brain-derived homogenates from two different donors
Description: The procedure was adapted from the protocol described in Spillantini et al., 1998. Frozen tissue blocks from PD donors were thawed on ice and homogenized using a glass dounce homogenizer. The homogenate was then centrifuged at 11,000×g (12,700 RPM) in an ultracentrifuge (Beckman, XL100K) for 20 minutes at 4° C. using a pre-cooled 70.1 rotor (Beckman, 342184). Pellets were resuspended in extraction buffer [10 mM Tris-HCl pH 7.4, 10% sucrose, 0.85 M NaCl, 1% protease inhibitor (Calbiochem 539131), 1 mM EGTA, 1% phosphatase inhibitor (Sigma P5726 and P0044)] and centrifuged at 15,000×g (14,800 RPM, a 70.1 Ti rotor) for 20 minutes at 4° C. Pellets were discarded and sarkosyl (20% stock solution, Sigma L7414) was added to the supernatants to a final concentration of 1% and stirred at room temperature for one hour. This solution was then centrifuged at 100,000×g (38,000 RPM, 70.1 Ti rotor) for one hour at 4° C. Pellets containing enriched alpha-synuclein aggregates were resuspended in PBS per gram of brain initially used and stored at −80° C. until use.
PD brain-derived alpha-synuclein aggregates were spotted onto microarray slides. The slides were incubated with [^3H]-alpha-synuclein reference at 20 nM or 30 nM and the example compounds (non-radiolabelled) at 1 μM and 100 nM. In some cases, the non-radiolabelled example compounds were further assessed for a range of different concentrations, varying from 0.05 nM to 2 μM. After incubation, slides were washed and scanned by a real-time autoradiography system (BeaQuant, ai4R). Quantification of signal was performed by using the image analysis software Beamage (ai4R).
Non-specific signal was determined with an excess of non-radiolabelled alpha-syn reference compound (2 μM) and specific binding was calculated by subtracting the non-specific signal from the total signal. Competition was calculated as percentage, where 0% was defined as the specific binding in the presence of vehicle and 100% as the values obtained in the presence of excess of the non-radiolabelled alpha-syn reference compound. Ki values were calculated in GraphPad Prism7 by applying a nonlinear regression curve fit using a one site, specific binding model. All measurements were performed with at least two technical replicates. For compounds tested in more than one experiment, the mean of the replicates or Ki values in independent experiments is reported.

| Compound | Competition at 100 nM (%) | Competition at 1 μM (%) | pKi |
| --- | --- | --- | --- |
| Cn1cc(N2Cc3cc(-c4ccc(N5CC[C@H](F)C5)nc4)cn3C2=O)cn1 [Example 5, (S)-6-(6-(3-fluoropyrrolidin-1-yl)pyridin-3-yl)-2-(1-methyl-1H-pyrazol-4-yl)-1,2-dihydro-3H-pyrrolo[1,2-c]imidazol-3-one Hydrogen Chloride Salt] | 87 | 102 | – |
| O=C1N(c2cccnc2)Cc2nc(-c3ccc(N4CC[C@@H](F)C4)nc3)cn21 [Example 2, (R)-2-(6-(3-fluoropyrrolidin-1-yl)pyridin-3-yl)-6-(pyridin-3-yl)-6,7-dihydro-5H-imidazo[1,5-a]imidazol-5-one Hydrochloride] | 63 | 86 | 6.91 |
| O=C1N(c2cccnc2)Cc2cc(-c3ccc(N4CC[C@@H](F)C4)nc3)cn21 [Example 1, (R)-6-(6-(3-fluoropyrrolidin-1-yl)pyridin-3-yl)-2-(pyridin-3-yl)-1H-pyrrolo[1,2-c]imidazol-3(2H)-one Hydrochloride] | 75 | 95 | – |
| O=C1N(c2cccnc2)Cc2nc(-c3ccc(N4CC[C@H](F)C4)nc3)cn21 [Example 3, (S)-2-(6-(3-fluoropyrrolidin-1-yl)pyridin-3-yl)-6-(pyridin-3-yl)-6,7-dihydro-5H-imidazo[1,5-a]imidazol-5-one Hydrochloride] | 59 | 85 | 7.01 |
| O=C1N(c2cccnc2)Cc2cc(-c3ccc(F)nc3)cn21 [Example 4, 6-(6-fluoropyridin-3-yl)-2-(pyridin-3-yl)-1H-pyrrolo[1,2-c]imidazol-3(2H)-one] | 51 | 52 | – |

The next lines start with the values.

| Competition at 100 nM (%) | Competition at 1 μM (%) | pKi | Compound |
| --- | --- | --- | --- |
| 69 | 85 | – | O=C1N(c2cccnc2)Cc2cc(-c3ccc(N4CC[C@H](F)C4)nc3)cn21 [Example 7, (S)-6-(6-(3-fluoropyrrolidin-1-yl)pyridin-3-yl)-2-(pyridin-3-yl)-1,2-dihydro-3H-pyrrolo[1,2-c]imidazol-3-one Hydrogen Chloride Salt] |
| 82 | 100 | – | Cn1cc(N2Cc3cc(-c4ccc(N5CC[C@@H](F)C5)nc4)cn3C2=O)cn1 [Example 6, (R)-6-(6-(3-fluoropyrrolidin-1-yl)pyridin-3-yl)-2-(1-methyl-1H-pyrazol-4-yl)-1,2-dihydro-3H-pyrrolo[1,2-c]imidazol-3-one Hydrogen Chloride Salt] |
